What was measured:
[1] = system: SF268 (human glioblastoma) cell line; assay: Preliminary in vitro cytotoxicity screening against SF268 cell line; type: cell-based
Source text: In contrast to the 1,12-carborane derivative 4, the 1,2- and 1,7-isomers undergo a deboronation reaction in polar solvents to afford the corresponding zwitterionic nido-carborane phosphonium species.

[2] = Deboronation of closo-carborane phosphonium salts in polar solvents; type: physicochemical; settings: polar solvents such as DMSO
Source text: The deboronation reaction was not observed for 4, which contains 1,12-carborane. The inventors hypothesise that 4 is highly resistant to the deboronation reaction because no boron atoms within the cluster are bonded to two adjacent and electronegative carbon atoms. The facile deboronation of closo-1,2-carborane under mild, non-basic conditions is known with alcohols, water and acids (E. Svantesson, J. Pettersson, Å. Olin, K. Markides, S. Sjöberg, Acta Chem. Scand., 1999, 53, 731. V. A. Ol'shevskaya, R. Ayuob, Z. G. Brechko, P. V. Petrovskii, E. G. Kononova, G. L. Levit, V. P. Krasnov, V. N. Charushin, O. N. Chupakhin, V. N. Kalinin, J. Organomet. Chem., 2005, 690, 2761. Y.-J. Lee, J.-D. Lee, J. Ko, S.-H. Kim, S. O. Kang, Chem. Commun., 2003, 1364) and has also been observed when functional groups located α- to the cage are electron-withdrawing and the compounds are exposed to polar solvents containing small amounts of H2O or MeOH (J. J. Schaeck, S. B. Kahl, Inorg. Chem., 1999, 38, 204). In the present case, the deboronation reactions occur in polar solutions such as dry DMF and thus most likely proceed by nucleophilic attack of the iodide counter-ion on the most electrophilic boron atoms in the cage, i.e. B3 (or B6) for 1,2-carborane and B2 (or B3) for 1,7-carborane.

Row | deboronation reaction to nido-carborane zwitterion [2] | Compound | GI50 [1] [µM]
1 |  | C[P+](c1ccccc1)(c1ccccc1)c1ccccc1 [TPMP, triphenylmethylphosphonium, reference compound] | 12.5
2 | spontaneously deboronate | methyldiphenyl(1,2-dicarba-closo-dodecaboranyl)phosphonium iodide [Compound 5] | 
3 | spontaneously deboronate | methyldiphenyl(1,7-dicarba-closo-dodecaboranyl)phosphonium iodide [Compound 6] | 
4 | not observed | methyldiphenyl(1,12-dicarba-closo-dodecaboranyl)phosphonium iodide [Compound 4] | > 40

Reference: patent US20100111867A1, “CARBORANE-PHOSPHONIUM COMPOUNDS AND THEIR USE IN BORON NEUTRON CAPTURE THERAPY AND IMAGING” (THE UNIVERSITY OF SYDNEY, priority 2007, published 2010)
